The values that follow are results of earlier work, collected in PMC6155437 (Molecules : A Journal of Synthetic Chemistry and Natural …, 2017).

What is called IC50 is the point on the concentration scale where inhibition reaches its midpoint. As usually defined, the Ki is the dissociation constant of the complex between target and ligand, obtained from inhibition or displacement.

Series [1] deals with CYP3A4 (Homo sapiens, UniProt P08684). The settings on record: CYP3A4 activity; cited from earlier work.
CYP3A4, sequence (P08684 whole entry): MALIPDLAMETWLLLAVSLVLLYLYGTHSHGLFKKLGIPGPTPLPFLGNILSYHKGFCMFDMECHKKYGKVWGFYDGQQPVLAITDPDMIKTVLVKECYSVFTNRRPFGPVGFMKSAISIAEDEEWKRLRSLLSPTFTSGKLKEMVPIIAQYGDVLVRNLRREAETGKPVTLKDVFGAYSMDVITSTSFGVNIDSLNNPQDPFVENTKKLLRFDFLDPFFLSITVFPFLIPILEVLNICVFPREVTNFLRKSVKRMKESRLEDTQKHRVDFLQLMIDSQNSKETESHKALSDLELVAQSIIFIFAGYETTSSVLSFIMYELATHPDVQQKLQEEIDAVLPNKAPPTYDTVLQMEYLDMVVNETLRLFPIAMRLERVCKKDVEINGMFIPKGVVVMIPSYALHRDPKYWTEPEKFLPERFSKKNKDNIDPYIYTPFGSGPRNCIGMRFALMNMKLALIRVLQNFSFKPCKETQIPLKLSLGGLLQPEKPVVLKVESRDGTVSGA
In series [2] the target is T1, CYP2C9 (Homo sapiens, UniProt P11712).
T1 construct: tissue Corning Life Sciences; host or cells: pooled human liver microsomes (150 donors)
T1 sequence (P11712 whole entry): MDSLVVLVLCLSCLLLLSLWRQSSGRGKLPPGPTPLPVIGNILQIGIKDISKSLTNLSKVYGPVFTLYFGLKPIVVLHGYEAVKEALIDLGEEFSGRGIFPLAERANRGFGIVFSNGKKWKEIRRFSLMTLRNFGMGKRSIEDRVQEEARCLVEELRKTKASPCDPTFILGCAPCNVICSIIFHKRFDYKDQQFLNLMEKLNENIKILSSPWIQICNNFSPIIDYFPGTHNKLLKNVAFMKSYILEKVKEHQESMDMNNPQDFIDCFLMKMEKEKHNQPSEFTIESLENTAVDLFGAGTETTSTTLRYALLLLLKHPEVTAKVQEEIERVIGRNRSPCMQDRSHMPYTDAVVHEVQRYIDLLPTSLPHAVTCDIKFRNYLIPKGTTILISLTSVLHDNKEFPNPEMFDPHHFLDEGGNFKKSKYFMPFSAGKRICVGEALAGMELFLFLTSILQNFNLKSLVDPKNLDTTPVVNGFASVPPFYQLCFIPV
The arrangement: method as in PMID 22166891. The note with it: CYP2C9-catalyzed diclofenac hydroxylation in human liver microsomes; cited from earlier work. On the technique in general: Liver microsomes are vesicles of endoplasmic reticulum, rich in cytochrome P450 enzymes.

The target of series [3] is T2, CYP2B6 (Homo sapiens, UniProt P20813).
T2 construct: pooled human liver microsomes (0.2 mg/mL); tissue Corning Life Sciences; host or cells: pooled human liver microsomes (150 donors)
T2 sequence (P20813 1-491): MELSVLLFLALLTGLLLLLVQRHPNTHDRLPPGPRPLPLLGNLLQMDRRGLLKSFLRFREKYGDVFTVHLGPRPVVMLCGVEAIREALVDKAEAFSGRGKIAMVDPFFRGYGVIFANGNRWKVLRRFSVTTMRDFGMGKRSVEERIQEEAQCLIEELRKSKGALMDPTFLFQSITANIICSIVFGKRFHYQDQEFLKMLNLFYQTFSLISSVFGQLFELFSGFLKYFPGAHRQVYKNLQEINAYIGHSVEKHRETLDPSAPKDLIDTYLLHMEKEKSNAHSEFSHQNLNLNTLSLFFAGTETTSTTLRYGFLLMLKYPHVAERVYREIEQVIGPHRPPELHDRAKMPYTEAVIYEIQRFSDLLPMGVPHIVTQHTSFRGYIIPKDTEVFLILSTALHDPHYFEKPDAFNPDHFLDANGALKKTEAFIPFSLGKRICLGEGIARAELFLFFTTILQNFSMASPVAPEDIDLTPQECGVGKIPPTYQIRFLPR
Set-up: method as in doi:10.1007/s11419-011-0112-7. The note with it: CYP2B6 activity; cited from earlier work.

For `CCCCCc1cc(O)c2c(c1)OC(C)(C)c1ccc(C)cc1-2` [cannabinol], in series [1], the IC50 is greater than 50000 nM.

On to `CCCCCc1cc(O)c2c(c1)OC(C)(C)[C@@H]1CCC(C)=C[C@@H]21` [THC, Δ9-tetrahydrocannabinol], for which the values for the Ki in series [2] and in series [3] were 1310 nM and 2810 nM, respectively. Also, the IC50 in series [1] was greater than 50000 nM.
